Assay results published in patent EP1897937A1, “Method of culturing NPCs” (NeuroProgen GmbH Leipzig, priority 2006, dated 2008).
Where two headings read alike, the source gives them in different places.

How the values were obtained:
Assay type in all cases: cell-based, human
hmNPCs [1] = assay: Dopaminergic differentiation: counting of TH-positive cells by immunocytochemistry
Protocol: (§1) To determine long-term proliferation, hmNPCs were plated and expanded for 2 passages with or without addition of various agents (see below) to the custom expansion media containing the growth factors EGF and FGF2. Different fetal midbrain tissues were included in this study. At the end of the proliferation period, differentiation of hmNPCs was induced via replacement of expansion media with mitogen-free media containing 1% FCS, 5 µM forskoline (Sigma-Aldrich Chemie GmbH Munich, Germany), and 100 pg/ml IL-1β (Sigma). The differentiation and expansion media were supplemented with different drugs as appropriate. Prior to immunocytochemistry or protein extraction, hmNPCs were allowed to differentiate for 1 week. To determine short-term proliferation via Ki67 immunostaining, the cells were seeded into 24-well plates (70,000 cells/well) and left overnight to rest. P2 receptor agonists (ATP, UTP, ATP + UTP, ADP, ADPβS) were supplied daily for 5 consecutive days. Ki67/nestin double-positive cells were counted in 8 randomly selected fields of nucleotide-treated or untreated samples. For the assessment of MAPK phosphorylation the cells were kept free of mitogens for 2 d prior to addition of the MEK-inhibitor in expansion media. In addition, the MEK-inhibitor was added during the differentiation period 15 min before UTP administration.
(§2) UTP, UDP, ATP, ADP, ADPβS and suramin were purchased from Sigma (Sigma-Aldrich Chemie GmbH Munich, Germany). UTP and UDP were applied at different concentrations (1 µM, 10 µM, 100 µM), ATP at 100 µM, ADP at 100 µM, and ADPβS at100 µM. During expansion of the cells, the nucleotides were renewed once a week with every media change, unless otherwise stated. They were applied once at the beginning of the differentiation period. The P2 receptor antagonist suramin (10 µM) was added to expansion media 30 min prior to addition of UTP (100 µM). The stock solution of the MEK1/2 inhibitor U0126 (Promega Corporation, Mannheim, Germany) was prepared in dimethyl sulfoxide (DMSO) at a concentration of 10 mM. The stock solution was then diluted in 0.1 M PBS to obtain a concentration of 1 mM. MEK inhibitor (final concentration 10 µM) was added to mitogen-free expansion media, 15 min before UTP treatment (1 µM) of hmNPCs.
Expanded or one week differentiated hmNPCs were fixed with 4% paraformaldehyde in PBS for 10 min at room temperature and washed with PBS, counterstained with the DNA-binding dye 4'-6-Diamidino-2-phenylindole (DAPI, 2 µg/ml in PBS) for 15 min at room temperature, washed twice in PBS followed by incubation in blocking buffer (10% FCS, 0.2% Triton-X 100 in PBS, pH 7.2) for 30 min at room temperature. After incubation with a primary antibody (over night at 4°C in blocking buffer), the cells were incubated with fluorescent secondary antibodies, Alexa Fluor® 488 conjugate or Alexa Fluor® 594 conjugate (Molecular Probes, Eugene, USA). Cover-slips were mounted onto glass slides and examined under a fluorescence microscope (Zeiss Axiovert 200). Acquisition of the cells was performed using the Image-analysis software AxioVision 4 (Carl Zeiss AG, Jena, Germany). The following primary antibodies were used for immunofluorescence: rabbit polyclonal anti-β-tubulin III (anti-Tuj1) antibody, rabbit polyclonal anti-tyrosine hydroxylase antibody , mouse monoclonal anti-nestin antibody (Pharmingen, San Diego, CA, USA), rabbit polyclonal anti-Ki67 antigen antibody (Novocastra Laboratories Ltd, Newcastle upon Tyne, UK). Estimation of the TH-positive cell numbers was performed by counting of cells among approximately 1000 differentiated cells in total within 6 randomly selected fields.

ERK1/2 = ERK1/2 (MAPK) phosphorylation by Western blot
Protocol: as §1, §2
In order to prepare protein extracts, hmNPCs were collected, washed with ice-cold PBS and lysed in buffer [10 mM HEPES-KOH (pH 7.9), 10 mM KCI, 1.5 mM MgCl2, 0.1% NP-40], supplemented with protease inhibitor cocktail (Roche). After a brief centrifugation at 4°C/10 000×g, protein concentrations and protein yield from extracts were determined using the Bradford method (Bio-Rad, Hercules, CA, USA). To preserve the phosphorylation state of proteins, extracts for the MAPK experiment were obtained using the PhosphoSafe™ extraction reagent containing phophatase inhibitors (Novagen). […] Membranes were blocked with 5% (wt/vol) nonfat dry milk in PBS-T (PBS, 0.1% (vol/vol) Tween 20) for 2 h at room temperature and subsequently incubated with the desired primary antibody (diluted in PBS containing 5% non-fat milk and 0.1% Tween 20) overnight at 4 °C with gentle agitation. The membrane was incubated with horseradish peroxidase-coupled secondary antibody for 1 h at room temperature. […] The chemiluminescence was quantified using the AIDA, two-dimensional densitometry software (Raytest lsotopenmeb, Straubenhardt, Germany).

hmNPCs [2] = assay: Patch-clamp of voltage-gated potassium and sodium channels in differentiated cells; conditions: 100 µM; differentiation for 3 weeks
Protocol: Patch-clamp analyses of hmNPCs was carried out after in vitro differentiation for 3 weeks with or without 100 µM UTP at room temperature using an inverted microscope DMIL (Leica, Bensheim, Germany) and an EPC-9 amplifier (HEKA, Lambrecht, Germany). Recordings of voltage-gated potassium and sodium channels were obtained in the whole-cell voltage-clamp mode by stepwise depolarisations with increasing amplitudes from the holding potential of - 70mV to 50mV in steps of 10mV. Ligand-gated P2X-channels were investigated in the whole-cell voltage-clamp mode by rapid application of 300 µM ADP, ATP, and UTP with a SF-77B perfusion fast-step system (Warner Instruments Inc., Hamden, USA). Series resistance values were continuously measured during all recordings. The external bath solution contained (in mM): 142 NaCl, 1 CaCl2, 8 KCI, 6 MgCl2, 10 Glucose, and 10 HEPES (pH 7.4; 320 mOsm). Micropipettes were formed from thin-walled borosilicate glass (Science Products, Hofheim, Germany) with a Flaming Brown electrode puller P-97 (Sutter Instrument Co., Novato, USA) and a Micro Forge (Narishige, Tokio, Japan). […] Whole cell currents were low-pass filtered at 2-5 kHz, digitized at 10 kHz, and analyzed using PulseFit software (HEKA, Lambrecht, Germany) and Prism 4 (GraphPad Software Inc, San Diego, USA). Numerical data were expressed as mean ± SEM. […]

Structure (SMILES): O=c1ccn([C@@H]2O[C@H](COP(=O)(O)OP(=O)(O)OP(=O)(O)O)[C@@H](O)[C@H]2O)c(=O)[nH]1 [UTP, uridine 5'-triphosphate]
- contribution of TH-immunopositive cells to the total of Tuj1-immunopositive cells (hmNPCs [1]; 100 µM, 2 weeks of expansion followed by 1 week of differentiation): increased
- activity at 100 µM (hmNPCs [1]; Homo sapiens, 168 h, 100 µM each, once, only during the differentiation period of one week, read-out: number of TH-positive (dopaminergic) cells as compared to control): 239 ± 27%
- activity at 1 µM (hmNPCs [1]; Homo sapiens, 1 µM, 2 weeks of expansion and one week of differentiation, read-out: number of TH-positive cells): 211 ± 30%
- activity at 100 µM (hmNPCs [1]; Homo sapiens, 100 µM during proliferation and differentiation, read-out: number of TH-positive cells): 267 ± 20%
- ERK1/2 (MAPK) phosphorylation (ERK1/2; 1 µM, 30 min, expansion media, mitogen-free): phosphorylated
- expression of phosphorylated ERK1/2 (ERK1/2; 100 µM, one week of differentiation): increased
- maximal potassium and sodium current amplitudes, treated vs untreated (hmNPCs [2]): no significant difference
